Tested on: BN Rats
Test: Incidence of skin rash in BN rats, time course study
Assay type: in vivo
Experimental: The protocol was modeled after that published previously (Shenton et al, Chem. Res. Toxicol. 2005, 18, 1799-1813, and Popovic et al, Chem. Res. Toxicol. 2006, 19, 1205-1214). After a 1-week acclimation period, the rats (n=3 per group) were either treated with the suspension vehicle (1% Tween® 20), or Nevirapine (NVP) (150 mg/kg/day) in suspension, or compounds of Formula I (dNVP) (150 mg/kg) in suspension. Animals were monitored for development of skin rash, and body weight. At the endpoint of the experiment, rats were humanely euthanized using carbon dioxide and exsanguinations.
At day 18, all animals in all three groups were euthanized as the experiment was deemed to have reached its ethical endpoint where no additional dosing was considered appropriate.

Cc1ccnc2c1NC(=O)c1cccnc1N2C1CC1 [NVP, 11-Cyclopropyl-5,11-dihydro-4-methyl-6H-dipyrido[3,2,-b:2′,3′-e][1,4]-diazepin-2-one]
other visible signs (ears, eyes, feet, tail) (150 mg/kg/day in suspension, at approximately the two-week point): distinctly red ears, edematous eyes, purple feet, and a mottled tail | behaviour / general health after dosing (150 mg/kg/day in suspension, over entire course of the experiment (to day 18)): inactivity and a lack of responsiveness for about three hours after each dosing | overall toxicity, NVP compared with compounds of Formula I (150 mg/kg/day in suspension, under controlled conditions): substantially more toxic than compounds of Formula I | development of skin lesions (skin rash) (n=3 per group, 150 mg/kg/day in suspension (1% Tween 20), observed to day 18): all NVP-treated animals displayed lesions, particularly around the dorsal area of the neck

From patent US20080241289A1, “PREPARATION AND UTILITY OF NON-NUCLEOSIDE REVERSE TRANSCRIPTASE INHIBITORS” (AUSPEX PHARMACEUTICALS, INC., priority 2007, published 2008)
